{"source": "patent US8808769B2", "about": "“Method for extraction of fractions containing pharmacologically active ingredients with less cytotoxicity from one or more plants” (Bioved Pharmaceuticals, Inc., priority 2009, dated 2014)", "system": "Pseudomonas aeruginosa (ATCC 9027)", "test": "agar well diffusion assay (antimicrobial activity)", "format": "cell-based", "conditions": "ATCC9027, 100 μl of 100 mg/ml solution per well, 37° C., 24 hours of incubation, mean of three readings, read-out: zone of inhibition (diameter)", "text": "Pseudomonas aeruginosa (ATCC 9027) strain was used as test organisms. The culture media, Nutrient Agar (NA), Nutrient Broth (NB) and Czapek Yeast Extract Agar (CYA) used for the growth of microorganisms, were purchased from Hi-Media. All other chemicals, including organic solvents used for the extraction of the plant metabolites, were of analytical grade.\nThe AP Extract 2, SX Extract 2, OS Extract 2, AP Extract 1, SX Extract 1 and OS Extract 1 were separately dissolved in 100% aqueous dimethylsulfoxide (DMSO) to obtain a final concentration of 100 mg/ml for each extract. 100 mg/ml solution of Chloramphenicol was prepared and used as a Positive control. Antimicrobial activity of the above mentioned extracts was determined, using the agar well diffusion assay method (Perez et al., 1990). Approximately 20 ml of molten and cooled media (NA and CYA) were poured in sterilized Petri dishes. The plates were left overnight at room temperature to check for any contamination to appear. The test organism was grown in nutrient broth for 24 hours. […]\nAgar wells of 5 mm diameter were prepared with the help of a sterilized stainless steel cork borer. […] The antimicrobial activity of the extracts was taken on the basis of diameter of zone of inhibition, which was measured at cross-angles after 24 hours of incubation and the mean of three readings for each extract.", "data": [{"molecule": "O=C(N[C@H](CO)[C@H](O)c1ccc([N+](=O)[O-])cc1)C(Cl)Cl", "note": "[positive standard, Chloramphenicol]", "values": [{"measurement": "zone of inhibition at 100000 µg/mL", "result": 40, "unit": "mm"}]}]}
